Measurements: PMC10706242, “Inhibitors of 3-Hydroxy-3-methylglutaryl Coenzyme A Reductase Decrease the Growth, Ergosterol Synthesis and Generation of petite Mutants in Candida glabrata and Candida albicans” (International Journal of Molecular Sciences, 2023)

What was measured:
rec-CgHMGR (CgHMGR) [1] = target: T1, rec-CgHMGR (CgHMGR) (Nakaseomyces glabratus, UniProt Q6FKH6); experiment: NADPH oxidation at […] nm; type: biochemical; settings: read-out: Inhibition (% of Relative Activity) *
T1 construct: gene HMG1; transmembrane region removed), pPICZB, His-tagged, expressed in Pichia pastoris X-33, Ni-NTA purified, approx. 48 kDa by SDS-PAGE
T1 sequence (Q6FKH6 619-1056 limits assumed): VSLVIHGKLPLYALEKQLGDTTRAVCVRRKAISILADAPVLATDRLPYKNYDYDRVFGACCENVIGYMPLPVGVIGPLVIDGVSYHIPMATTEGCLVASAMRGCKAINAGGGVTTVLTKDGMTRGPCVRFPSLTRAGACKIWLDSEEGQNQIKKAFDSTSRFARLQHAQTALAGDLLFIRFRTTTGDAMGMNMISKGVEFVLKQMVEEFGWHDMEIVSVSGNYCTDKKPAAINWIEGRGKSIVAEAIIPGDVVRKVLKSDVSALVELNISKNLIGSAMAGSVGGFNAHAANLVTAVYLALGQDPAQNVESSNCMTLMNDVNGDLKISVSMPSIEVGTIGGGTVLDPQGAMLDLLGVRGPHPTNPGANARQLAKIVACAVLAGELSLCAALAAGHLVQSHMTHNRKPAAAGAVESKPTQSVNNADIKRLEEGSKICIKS

rec-CgHMGR (CgHMGR) [2] = target: T1, rec-CgHMGR (CgHMGR); experiment: NADPH oxidation at […] nm; type: biochemical; settings: HMG-CoA, 50 mM Tris-HCl pH 8.0, 37 °C

Row | Structure (SMILES) | inhibition at 100 µM (rec-CgHMGR (CgHMGR) [1]) [%] | NADPH oxidation at 340 nm (rec-CgHMGR (CgHMGR) [2])
1 | CCCc1cc(OC)c(OC)cc1O [7a] | 66 ± 2.08 | –
2 | CCCc1cc(OC)c(OCC(=O)OC)cc1[N+](=O)[O-] [1a] | 73 ± 1.52 | –
3 | NC(=O)C1=CN([C@@H]2O[C@H](COP(=O)(O)OP(=O)(O)OC[C@H]3O[C@@H](n4cnc5c(N)ncnc54)[C@H](OP(=O)(O)O)[C@@H]3O)[C@@H](O)[C@H]2O)C=CC1 [NADPH] | – | converted into its oxidized form by the catalytic subunit of HMGR in the presence of HMG-CoA
4 | CCCc1cc(OC)c(OCC(=O)OC)cc1O [1b] | 89 ± 1.24 | –
5 | CCc1ccc(OCC(=O)OC)c([N+](=O)[O-])c1 [6g] | 86 ± 3.21 | –
